Results reported in ChEMBL document CHEMBL5465560, “Selectivity Literature for EUbOPEN Chemogenomic Library” (2024).
Blank lines part the entries; values can stand above or below the compound they belong to.

How the values were obtained:
[1] = target: Serine/threonine-protein kinase SBK1 (Homo sapiens) (UniProt Q52WX2); assay: Selectivity interaction (Kinase panel (Z-LYTE Assay)) EUB0001632a SBK1; conditions: at 10 µM
[2] = target: Mitogen-activated protein kinase 8 (Homo sapiens, UniProt P45983); assay: Selectivity interaction (Kinase panel (literature)) EUB0001199aCl MAPK8; conditions: at 1 µM
[3] = target: T1, Ephrin type-A receptor 6 (Homo sapiens) (UniProt Q9UF33); assay: Selectivity interaction (KinomeScan (DiscoverX)) EUB0000607a EPHA6; conditions: at 10 µM
T1 sequence (whole entry): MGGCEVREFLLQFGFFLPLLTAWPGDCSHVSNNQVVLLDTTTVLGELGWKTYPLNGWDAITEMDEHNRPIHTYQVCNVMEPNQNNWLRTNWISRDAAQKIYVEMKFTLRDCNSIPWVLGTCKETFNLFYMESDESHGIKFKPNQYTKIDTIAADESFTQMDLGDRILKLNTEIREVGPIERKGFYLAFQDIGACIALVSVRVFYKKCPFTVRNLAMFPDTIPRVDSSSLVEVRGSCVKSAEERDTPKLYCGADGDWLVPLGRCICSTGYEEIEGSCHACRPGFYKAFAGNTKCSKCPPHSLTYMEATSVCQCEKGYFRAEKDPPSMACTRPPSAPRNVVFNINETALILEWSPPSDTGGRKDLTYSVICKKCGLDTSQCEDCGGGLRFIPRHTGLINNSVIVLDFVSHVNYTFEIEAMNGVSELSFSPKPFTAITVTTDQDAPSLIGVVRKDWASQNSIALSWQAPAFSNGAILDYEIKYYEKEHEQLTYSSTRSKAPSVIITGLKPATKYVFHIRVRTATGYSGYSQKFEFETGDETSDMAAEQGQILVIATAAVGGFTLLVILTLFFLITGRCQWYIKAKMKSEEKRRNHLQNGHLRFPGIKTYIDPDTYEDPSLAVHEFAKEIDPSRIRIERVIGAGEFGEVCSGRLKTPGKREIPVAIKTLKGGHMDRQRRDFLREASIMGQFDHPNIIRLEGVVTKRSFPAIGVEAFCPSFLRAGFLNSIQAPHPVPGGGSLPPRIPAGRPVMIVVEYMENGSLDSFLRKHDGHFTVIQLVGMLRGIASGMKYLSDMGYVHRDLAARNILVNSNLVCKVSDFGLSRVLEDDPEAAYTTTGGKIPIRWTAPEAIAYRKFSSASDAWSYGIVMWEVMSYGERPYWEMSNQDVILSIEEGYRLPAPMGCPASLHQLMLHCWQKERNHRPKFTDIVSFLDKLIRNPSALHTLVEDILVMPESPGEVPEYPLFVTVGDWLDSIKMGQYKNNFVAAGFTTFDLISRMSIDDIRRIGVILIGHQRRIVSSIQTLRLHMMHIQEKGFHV

[4] = target: Mitogen-activated protein kinase kinase kinase 9 (Homo sapiens) (UniProt P80192); assay: Selectivity interaction (KinomeScan (DiscoverX)) EUB0000607a MAP3K9; conditions: at 10 µM
[5] = target: Calcium/calmodulin-dependent protein kinase type II subunit beta (Homo sapiens) (UniProt Q13554); assay: Selectivity interaction (ActivX KiNativ screen (kinase selectivity in THP-1 cell lysates)) EUB0000639a CAMK2B; assay type: subcellular; conditions: lysate, at 5 µM
[6] = target: Death-associated protein kinase 3 (Homo sapiens) (UniProt O43293); assay: Selectivity interaction (Kinase panel (DSF assay)) EUB0001559a DAPK3
[7] = target: Casein kinase I isoform gamma-1 (Homo sapiens) (UniProt Q9HCP0); assay: Selectivity interaction (KinomeScan (DiscoverX)) EUB0000595a CSNK1G1; conditions: at 10 µM
[8] = target: T2, TGF-beta receptor type-1 (Homo sapiens) (UniProt P36897); assay: Selectivity interaction (KinomeScan (DiscoverX)) EUB0000595a TGFBR1; conditions: at 10 µM
T2 sequence (whole entry): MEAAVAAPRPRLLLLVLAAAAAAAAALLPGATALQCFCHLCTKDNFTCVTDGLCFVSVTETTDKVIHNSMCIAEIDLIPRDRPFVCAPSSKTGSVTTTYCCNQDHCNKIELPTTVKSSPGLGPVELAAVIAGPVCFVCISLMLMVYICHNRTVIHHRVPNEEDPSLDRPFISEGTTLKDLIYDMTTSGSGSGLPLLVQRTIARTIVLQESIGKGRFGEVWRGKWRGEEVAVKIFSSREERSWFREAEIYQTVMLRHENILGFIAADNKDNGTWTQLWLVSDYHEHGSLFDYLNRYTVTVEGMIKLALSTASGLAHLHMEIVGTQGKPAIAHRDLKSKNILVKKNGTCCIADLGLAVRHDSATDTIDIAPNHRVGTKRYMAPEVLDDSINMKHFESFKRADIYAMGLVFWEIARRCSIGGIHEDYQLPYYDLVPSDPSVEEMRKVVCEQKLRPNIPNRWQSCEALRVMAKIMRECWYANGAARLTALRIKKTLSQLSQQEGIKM

[9] = target: Macrophage-stimulating protein receptor (Homo sapiens, UniProt Q04912); assay: Selectivity interaction (Ambit KINOMEscan and KiNATiv profiling in Jurkat cells) EUB0000090b MST1R; assay type: cell-based; conditions: at 1 µM
[10] = target: Serine/threonine-protein kinase PRP4 homolog (Homo sapiens) (UniProt Q13523); assay: Selectivity interaction (Ambit KINOMEscan and KiNATiv profiling in Jurkat cells) EUB0000090b PRPF4; assay type: cell-based; conditions: at 1 µM
[11] = target: BMP-2-inducible protein kinase (Homo sapiens) (UniProt Q9NSY1); assay: Selectivity interaction (KinomeScan (DiscoverX)) EUB0000045b BMP2K
[12] = target: Cyclin-dependent kinase 7 (Homo sapiens, UniProt P50613); assay: Selectivity interaction (Kinase panel (KiNativ target engagement assay in Jurkat cells)) EUB0001635a CDK7; assay type: cell-based; conditions: Selectivity number of off-targets 0.0, Selectivity number of targets 233.0, Source Knowledge https://www.sciencedirect.com/science/article/pii/S2451945619300674?via%3Dihub, at 1 µM
[13] = target: Serine/threonine-protein kinase mTOR (Homo sapiens, UniProt P42345); assay: Selectivity interaction (KinomeScan (DiscoverX)) EUB0000229b MTOR; conditions: at 10 µM
[14] = target: Serine/threonine-protein kinase SIK1 (Homo sapiens) (UniProt P57059); assay: Selectivity interaction (KinomeScan (DiscoverX)) EUB0001619a SIK1; conditions: at 1 µM

Chain of BMP-2-inducible protein kinase (Homo sapiens) (Q9NSY1 whole entry, looked up): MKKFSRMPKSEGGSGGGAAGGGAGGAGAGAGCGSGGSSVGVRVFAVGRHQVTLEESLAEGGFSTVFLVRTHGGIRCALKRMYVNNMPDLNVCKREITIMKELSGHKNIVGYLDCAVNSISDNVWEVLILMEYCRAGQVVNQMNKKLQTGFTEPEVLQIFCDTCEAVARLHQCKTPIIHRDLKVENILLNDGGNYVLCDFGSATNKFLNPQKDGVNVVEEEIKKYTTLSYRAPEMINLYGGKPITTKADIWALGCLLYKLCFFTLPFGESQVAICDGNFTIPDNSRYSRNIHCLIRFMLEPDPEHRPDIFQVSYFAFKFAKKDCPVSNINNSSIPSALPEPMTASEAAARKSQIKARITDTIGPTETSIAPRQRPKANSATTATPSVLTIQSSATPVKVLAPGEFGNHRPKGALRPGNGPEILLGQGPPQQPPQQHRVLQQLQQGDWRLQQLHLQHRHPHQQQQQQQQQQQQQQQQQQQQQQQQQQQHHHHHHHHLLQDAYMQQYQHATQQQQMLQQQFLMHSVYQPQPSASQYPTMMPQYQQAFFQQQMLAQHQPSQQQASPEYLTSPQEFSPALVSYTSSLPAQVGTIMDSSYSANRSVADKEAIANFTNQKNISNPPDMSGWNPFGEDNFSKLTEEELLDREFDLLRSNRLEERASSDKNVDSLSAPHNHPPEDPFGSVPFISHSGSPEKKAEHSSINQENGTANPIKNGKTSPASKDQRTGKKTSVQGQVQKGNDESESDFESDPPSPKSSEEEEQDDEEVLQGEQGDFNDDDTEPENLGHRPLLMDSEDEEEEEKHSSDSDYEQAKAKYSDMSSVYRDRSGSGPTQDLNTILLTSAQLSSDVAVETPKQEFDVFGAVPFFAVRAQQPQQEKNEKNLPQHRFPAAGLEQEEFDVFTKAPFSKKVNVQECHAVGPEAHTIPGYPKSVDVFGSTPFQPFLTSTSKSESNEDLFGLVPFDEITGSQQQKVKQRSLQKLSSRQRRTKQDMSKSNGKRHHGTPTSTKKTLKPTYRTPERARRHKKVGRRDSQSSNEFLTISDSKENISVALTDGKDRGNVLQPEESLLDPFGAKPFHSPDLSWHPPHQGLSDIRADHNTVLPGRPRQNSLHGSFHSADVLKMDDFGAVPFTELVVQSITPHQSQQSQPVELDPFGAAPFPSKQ
Chain of Mitogen-activated protein kinase 8 (P45983 whole entry): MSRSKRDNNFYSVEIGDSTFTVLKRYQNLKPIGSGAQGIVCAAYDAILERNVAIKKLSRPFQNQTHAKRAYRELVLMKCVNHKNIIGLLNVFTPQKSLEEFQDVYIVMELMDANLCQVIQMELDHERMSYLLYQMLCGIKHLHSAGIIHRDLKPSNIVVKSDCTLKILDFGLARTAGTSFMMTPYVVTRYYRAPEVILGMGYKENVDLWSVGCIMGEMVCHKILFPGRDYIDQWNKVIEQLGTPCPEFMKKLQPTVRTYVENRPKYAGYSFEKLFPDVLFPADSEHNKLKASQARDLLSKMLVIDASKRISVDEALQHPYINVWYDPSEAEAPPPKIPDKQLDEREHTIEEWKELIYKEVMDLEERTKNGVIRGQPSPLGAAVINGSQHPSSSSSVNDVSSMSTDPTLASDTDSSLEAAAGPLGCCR
Chain of Serine/threonine-protein kinase SBK1 (Homo sapiens) (Q52WX2 whole entry): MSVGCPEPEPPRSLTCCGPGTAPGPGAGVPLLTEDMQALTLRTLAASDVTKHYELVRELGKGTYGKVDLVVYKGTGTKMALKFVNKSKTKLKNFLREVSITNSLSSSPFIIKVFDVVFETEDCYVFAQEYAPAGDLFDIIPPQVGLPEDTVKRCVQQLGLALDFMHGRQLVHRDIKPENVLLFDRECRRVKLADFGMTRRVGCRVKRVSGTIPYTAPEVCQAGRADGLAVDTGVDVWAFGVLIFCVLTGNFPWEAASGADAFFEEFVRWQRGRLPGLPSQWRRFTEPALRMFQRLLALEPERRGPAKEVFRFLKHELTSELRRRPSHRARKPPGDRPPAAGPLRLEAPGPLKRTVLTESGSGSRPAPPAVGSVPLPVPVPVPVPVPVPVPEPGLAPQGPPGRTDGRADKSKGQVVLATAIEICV
Chain of Macrophage-stimulating protein receptor (Q04912 25-304 limits assumed): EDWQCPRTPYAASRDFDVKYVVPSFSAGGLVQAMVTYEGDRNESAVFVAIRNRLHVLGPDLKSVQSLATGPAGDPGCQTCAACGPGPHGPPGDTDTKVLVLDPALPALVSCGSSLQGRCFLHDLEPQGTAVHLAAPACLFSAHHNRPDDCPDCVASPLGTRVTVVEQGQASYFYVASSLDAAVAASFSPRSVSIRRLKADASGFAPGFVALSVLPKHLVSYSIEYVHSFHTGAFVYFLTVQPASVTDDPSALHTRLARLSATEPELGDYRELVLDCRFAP
Chain of Macrophage-stimulating protein receptor (Q04912 310-1400 limits assumed): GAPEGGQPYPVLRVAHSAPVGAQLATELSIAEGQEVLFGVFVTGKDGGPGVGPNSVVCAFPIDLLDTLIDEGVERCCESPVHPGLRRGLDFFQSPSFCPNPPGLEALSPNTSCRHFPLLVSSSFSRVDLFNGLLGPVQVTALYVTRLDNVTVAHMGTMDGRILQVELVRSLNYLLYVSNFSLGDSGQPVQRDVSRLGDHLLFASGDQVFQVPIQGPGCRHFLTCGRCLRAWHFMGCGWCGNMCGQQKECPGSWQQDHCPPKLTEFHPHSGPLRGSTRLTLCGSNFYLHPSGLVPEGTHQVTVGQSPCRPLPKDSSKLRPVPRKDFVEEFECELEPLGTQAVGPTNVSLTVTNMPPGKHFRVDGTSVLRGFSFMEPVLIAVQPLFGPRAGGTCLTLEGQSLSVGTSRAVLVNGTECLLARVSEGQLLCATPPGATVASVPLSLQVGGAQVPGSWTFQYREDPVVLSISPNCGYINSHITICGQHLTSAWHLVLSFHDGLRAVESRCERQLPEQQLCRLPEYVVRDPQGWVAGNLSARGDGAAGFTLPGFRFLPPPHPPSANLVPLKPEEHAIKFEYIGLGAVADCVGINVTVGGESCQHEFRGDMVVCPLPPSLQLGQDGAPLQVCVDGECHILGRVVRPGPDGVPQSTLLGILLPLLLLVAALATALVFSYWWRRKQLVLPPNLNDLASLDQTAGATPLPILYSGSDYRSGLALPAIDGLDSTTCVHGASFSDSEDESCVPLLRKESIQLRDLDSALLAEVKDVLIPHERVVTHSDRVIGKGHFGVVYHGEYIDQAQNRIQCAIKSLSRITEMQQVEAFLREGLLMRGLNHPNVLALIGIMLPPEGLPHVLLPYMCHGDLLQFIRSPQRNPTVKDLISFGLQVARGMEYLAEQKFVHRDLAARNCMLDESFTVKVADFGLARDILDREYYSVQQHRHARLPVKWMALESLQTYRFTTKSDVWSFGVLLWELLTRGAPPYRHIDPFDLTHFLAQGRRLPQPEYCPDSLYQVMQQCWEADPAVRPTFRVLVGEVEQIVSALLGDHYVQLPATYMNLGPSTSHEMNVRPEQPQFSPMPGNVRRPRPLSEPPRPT
Chain of Cyclin-dependent kinase 7 (P50613 whole entry): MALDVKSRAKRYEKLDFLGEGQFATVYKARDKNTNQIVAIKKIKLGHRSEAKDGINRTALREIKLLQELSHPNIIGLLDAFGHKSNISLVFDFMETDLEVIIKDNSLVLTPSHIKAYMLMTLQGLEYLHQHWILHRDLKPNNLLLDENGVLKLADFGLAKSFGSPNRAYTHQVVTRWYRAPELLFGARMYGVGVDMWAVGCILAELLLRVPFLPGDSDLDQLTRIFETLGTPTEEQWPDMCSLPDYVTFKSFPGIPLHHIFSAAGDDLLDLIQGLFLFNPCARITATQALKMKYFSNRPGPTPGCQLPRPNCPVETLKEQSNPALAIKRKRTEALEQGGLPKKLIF
Chain of Serine/threonine-protein kinase PRP4 homolog (Homo sapiens) (Q13523 whole entry): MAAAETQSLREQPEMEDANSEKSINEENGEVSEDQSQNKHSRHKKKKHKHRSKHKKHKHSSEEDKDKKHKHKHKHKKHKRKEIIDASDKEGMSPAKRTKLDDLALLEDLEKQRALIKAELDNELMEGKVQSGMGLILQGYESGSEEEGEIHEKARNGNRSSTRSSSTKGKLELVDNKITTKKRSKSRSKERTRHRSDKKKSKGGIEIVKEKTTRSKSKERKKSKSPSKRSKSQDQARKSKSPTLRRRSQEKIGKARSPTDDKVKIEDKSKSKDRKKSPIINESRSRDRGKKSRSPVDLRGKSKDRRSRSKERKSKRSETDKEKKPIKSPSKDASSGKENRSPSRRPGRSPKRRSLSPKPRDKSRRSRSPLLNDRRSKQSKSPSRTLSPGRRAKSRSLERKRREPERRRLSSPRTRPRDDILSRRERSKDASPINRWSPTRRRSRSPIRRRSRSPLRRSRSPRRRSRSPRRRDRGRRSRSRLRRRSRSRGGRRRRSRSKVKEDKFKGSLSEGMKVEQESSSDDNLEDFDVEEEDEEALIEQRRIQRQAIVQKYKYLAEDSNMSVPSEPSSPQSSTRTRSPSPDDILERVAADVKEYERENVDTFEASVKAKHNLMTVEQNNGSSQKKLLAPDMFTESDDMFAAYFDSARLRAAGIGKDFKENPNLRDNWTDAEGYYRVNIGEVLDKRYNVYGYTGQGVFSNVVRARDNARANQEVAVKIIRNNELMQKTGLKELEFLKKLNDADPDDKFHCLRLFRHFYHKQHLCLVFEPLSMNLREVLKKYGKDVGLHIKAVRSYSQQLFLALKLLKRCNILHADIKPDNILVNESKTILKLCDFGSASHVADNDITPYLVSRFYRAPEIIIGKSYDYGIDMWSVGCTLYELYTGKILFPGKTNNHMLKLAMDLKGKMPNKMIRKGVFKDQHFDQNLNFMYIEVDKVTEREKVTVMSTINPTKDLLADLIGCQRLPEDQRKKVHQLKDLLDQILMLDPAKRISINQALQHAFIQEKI

- % of control [1]: -0.405%
SMILES: Cn1cc(-n2cnc3c(NCc4nc5cc(Cl)c(Cl)cc5[nH]4)nc(N4CCOCC4)nc32)cn1

- % of inhibition [2]: -2%
SMILES: CN1Cc2nccc(-c3cn(C)nc3-c3ccc(F)cc3)c2C1=O

SMILES: CNC(=O)Nc1ccc(-c2nc(N3CC4CCC(C3)O4)c3cnn(C4CCC5(CC4)OCCO5)c3n2)cc1
- % of control [3]: 98%
- % of control [4]: 97%

- % of inhibition [5]: 19.6%
SMILES: CC[C@@H]1[C@H](F)C(=O)N[C@@H]1COc1nccc2cc(C(N)=O)c(OC)cc12 [ZIMLOVISERTIB]

SMILES: CN(C(=O)c1cnn2cccnc12)c1cc2c(cc1N1CCOCC1)C(=O)N(C[C@@H](F)C(C)(C)O)C2
- dTM [6]: 0.2 K

SMILES: COCC(=O)NC/C=C/c1ccc2ncnc(Nc3ccc(Oc4ccc(C)nc4)c(C)c3)c2c1 [CP-724714]
- % of control [7]: 100%
- % of control [8]: 100%

SMILES: CN(C)C/C=C/C(=O)Nc1ccc(C(=O)N2CCCC(Nc3ncc(Cl)c(-c4c[nH]c5ccccc45)n3)C2)cc1 (stereo not given)
- % of control [9]: 90%
- % of control [10]: 74%

SMILES: C=CC(=O)Nc1cc(-n2c(=O)ccc3cnc4ccc(-c5ccc(NS(C)(=O)=O)cc5)cc4c32)ccc1C
- % of control ([11]; at 1 µM): 76%
- % of control ([11]; at 10 µM): 39%

SMILES: C=CC(=O)Nc1ccc(C(=O)Nc2[nH]nc3c2CN(C(=O)N[C@H](CN(C)C)c2ccccc2)C3(C)C)cc1
- % of engagement [12]: 95.5%

SMILES: COc1cc(N(C)c2ccnc3ccc(C(F)(F)F)cc23)cc(OC)c1OC
- % binding [13]: 94%

SMILES: N#Cc1cccc(-c2c[nH]c3ncnc(N4CCOCC4)c23)c1
- % of control [14]: 84%
